In experiment [1] the target is Receptor-type tyrosine-protein kinase FLT3 (Homo sapiens) (UniProt P36888). The following applies: Compound concentration 1.0 uM.
Experiment [2] concerns the target Phosphatidylinositol 5-phosphate 4-kinase type-2 alpha (Homo sapiens) (UniProt P48426). Nature of the experiment: PIP4K2a(h) Eurofins kinase panel. The following applies: Compound concentration 1.0 uM.
In a further experiment the test system is MDA-MB-453. The experiment in a line: MDA-MB- 453 cell line Proliferation assay. It counts as functional, Homo sapiens. To be noted: time 3 day.
Experiment [3] deals with Tyrosine-protein kinase JAK1 (Homo sapiens) (UniProt P23458). The experiment in a line: JAK1(h) Eurofins kinase panel. The following applies: Compound concentration 1.0 uM.
Sequence of Tyrosine-protein kinase JAK1 (Homo sapiens) (P23458 whole entry): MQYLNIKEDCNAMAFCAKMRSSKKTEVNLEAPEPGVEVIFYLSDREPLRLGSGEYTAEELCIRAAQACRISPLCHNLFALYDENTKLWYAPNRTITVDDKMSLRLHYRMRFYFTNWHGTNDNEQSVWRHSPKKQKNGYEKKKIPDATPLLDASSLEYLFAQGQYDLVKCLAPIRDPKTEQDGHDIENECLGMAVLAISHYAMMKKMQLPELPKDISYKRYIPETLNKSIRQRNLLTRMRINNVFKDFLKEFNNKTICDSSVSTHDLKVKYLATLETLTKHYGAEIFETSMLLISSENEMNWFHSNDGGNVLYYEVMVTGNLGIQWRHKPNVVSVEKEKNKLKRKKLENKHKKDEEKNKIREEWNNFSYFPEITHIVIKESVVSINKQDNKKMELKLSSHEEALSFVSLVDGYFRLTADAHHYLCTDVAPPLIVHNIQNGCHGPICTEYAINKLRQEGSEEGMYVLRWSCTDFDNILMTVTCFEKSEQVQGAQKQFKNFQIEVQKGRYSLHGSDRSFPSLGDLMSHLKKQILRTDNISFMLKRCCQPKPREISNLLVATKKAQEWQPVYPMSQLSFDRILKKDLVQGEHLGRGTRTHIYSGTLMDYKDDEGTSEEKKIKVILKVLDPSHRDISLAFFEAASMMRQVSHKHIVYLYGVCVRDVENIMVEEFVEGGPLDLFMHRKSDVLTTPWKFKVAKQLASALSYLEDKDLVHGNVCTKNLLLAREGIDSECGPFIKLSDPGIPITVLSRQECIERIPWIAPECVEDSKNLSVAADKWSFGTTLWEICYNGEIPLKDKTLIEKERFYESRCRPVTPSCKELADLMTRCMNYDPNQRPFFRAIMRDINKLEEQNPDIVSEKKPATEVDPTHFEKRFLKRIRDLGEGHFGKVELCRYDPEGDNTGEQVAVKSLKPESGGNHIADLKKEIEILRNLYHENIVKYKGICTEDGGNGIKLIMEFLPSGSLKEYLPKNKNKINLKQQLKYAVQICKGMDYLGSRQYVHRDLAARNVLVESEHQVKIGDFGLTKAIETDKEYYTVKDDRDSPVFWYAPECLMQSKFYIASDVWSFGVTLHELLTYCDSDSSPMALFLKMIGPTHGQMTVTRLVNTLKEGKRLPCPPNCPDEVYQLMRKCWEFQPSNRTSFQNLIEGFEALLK
Experiment [4] has as its target T1, cGMP-dependent protein kinase 1 (Homo sapiens) (UniProt Q13976).
T1 sequence (whole entry): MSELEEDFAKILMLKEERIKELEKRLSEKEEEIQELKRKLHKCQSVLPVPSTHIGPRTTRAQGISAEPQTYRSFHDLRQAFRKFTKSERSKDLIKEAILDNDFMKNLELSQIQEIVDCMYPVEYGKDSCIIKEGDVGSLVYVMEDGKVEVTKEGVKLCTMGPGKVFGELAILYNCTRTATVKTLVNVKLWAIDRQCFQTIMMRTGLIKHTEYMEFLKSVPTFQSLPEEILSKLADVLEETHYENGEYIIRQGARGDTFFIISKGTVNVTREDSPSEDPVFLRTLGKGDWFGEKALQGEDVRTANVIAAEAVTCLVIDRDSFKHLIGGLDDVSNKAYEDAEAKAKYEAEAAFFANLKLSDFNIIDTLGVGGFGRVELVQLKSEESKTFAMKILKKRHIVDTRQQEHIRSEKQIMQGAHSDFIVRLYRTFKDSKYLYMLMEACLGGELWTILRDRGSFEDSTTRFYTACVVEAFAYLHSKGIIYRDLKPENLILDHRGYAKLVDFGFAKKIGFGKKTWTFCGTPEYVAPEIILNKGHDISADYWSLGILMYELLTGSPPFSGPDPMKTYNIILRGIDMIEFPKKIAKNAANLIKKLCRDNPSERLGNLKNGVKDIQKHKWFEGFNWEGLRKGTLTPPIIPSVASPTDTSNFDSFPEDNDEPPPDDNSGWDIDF
The experiment in a line: PKG1alpha (h) Eurofins kinase panel. The following applies: Compound concentration 1.0 uM.

For experiment [5], the target named is Serine/threonine-protein kinase NIM1 (Homo sapiens) (UniProt Q8IY84). Nature of the experiment: NIM1(h) Eurofins kinase panel. To be noted: Compound concentration 1.0 uM.
Sequence of Serine/threonine-protein kinase NIM1 (Homo sapiens) (Q8IY84 whole entry): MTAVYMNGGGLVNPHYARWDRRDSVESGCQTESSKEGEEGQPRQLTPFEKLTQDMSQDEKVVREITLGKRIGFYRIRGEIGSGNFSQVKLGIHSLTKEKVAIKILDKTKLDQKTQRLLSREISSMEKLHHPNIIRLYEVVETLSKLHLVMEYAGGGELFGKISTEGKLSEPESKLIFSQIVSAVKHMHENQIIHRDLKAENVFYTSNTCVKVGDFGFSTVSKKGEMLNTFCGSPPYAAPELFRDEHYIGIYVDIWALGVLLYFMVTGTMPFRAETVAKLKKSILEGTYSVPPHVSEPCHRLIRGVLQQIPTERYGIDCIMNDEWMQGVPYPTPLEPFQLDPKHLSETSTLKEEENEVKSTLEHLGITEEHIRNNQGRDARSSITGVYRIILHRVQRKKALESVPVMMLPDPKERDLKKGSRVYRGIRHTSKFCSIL
Experiment [6] has as its target T2, Serine/threonine-protein kinase STK11 (Homo sapiens) (UniProt Q15831).
T2 sequence (whole entry): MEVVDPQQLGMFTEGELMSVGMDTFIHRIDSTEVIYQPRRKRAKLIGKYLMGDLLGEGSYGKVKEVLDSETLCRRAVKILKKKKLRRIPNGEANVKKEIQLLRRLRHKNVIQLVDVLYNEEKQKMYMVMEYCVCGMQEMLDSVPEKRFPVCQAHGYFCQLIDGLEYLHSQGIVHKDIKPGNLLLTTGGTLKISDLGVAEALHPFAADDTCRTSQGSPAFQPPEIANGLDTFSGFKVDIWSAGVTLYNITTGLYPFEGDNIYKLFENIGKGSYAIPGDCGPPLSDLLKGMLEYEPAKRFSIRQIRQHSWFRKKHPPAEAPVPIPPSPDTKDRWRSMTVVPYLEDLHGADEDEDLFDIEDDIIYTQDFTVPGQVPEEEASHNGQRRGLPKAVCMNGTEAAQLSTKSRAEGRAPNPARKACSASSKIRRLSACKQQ
Nature of the experiment: LKB1(h) Eurofins kinase panel. To be noted: Compound concentration 1.0 uM.

Experiment [7] addresses CDK4/Cyclin D3 (Homo sapiens) (UniProt P11802+P30281). The experiment in a line: CDK4/cyclinD3(h) Eurofins kinase panel. It counts as protein-complex assay. To be noted: Compound concentration 1.0 uM.
In experiment [8] the target is Testis-specific serine/threonine-protein kinase 2 (Homo sapiens) (UniProt Q96PF2). The experiment in a line: TSSK2(h) Eurofins kinase panel. The following applies: Compound concentration 1.0 uM.
Sequence of Testis-specific serine/threonine-protein kinase 2 (Homo sapiens) (Q96PF2 whole entry): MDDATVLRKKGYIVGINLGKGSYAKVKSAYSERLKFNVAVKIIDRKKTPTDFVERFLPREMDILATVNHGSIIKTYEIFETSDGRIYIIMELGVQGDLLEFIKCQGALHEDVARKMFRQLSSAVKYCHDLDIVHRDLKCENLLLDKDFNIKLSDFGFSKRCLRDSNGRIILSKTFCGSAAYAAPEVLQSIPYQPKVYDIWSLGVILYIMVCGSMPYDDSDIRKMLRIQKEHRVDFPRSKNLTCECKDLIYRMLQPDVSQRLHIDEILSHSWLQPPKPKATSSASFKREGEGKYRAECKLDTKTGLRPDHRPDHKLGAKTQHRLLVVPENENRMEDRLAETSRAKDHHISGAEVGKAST

Sequence of Phosphatidylinositol 5-phosphate 4-kinase type-2 alpha (Homo sapiens) (P48426 whole entry): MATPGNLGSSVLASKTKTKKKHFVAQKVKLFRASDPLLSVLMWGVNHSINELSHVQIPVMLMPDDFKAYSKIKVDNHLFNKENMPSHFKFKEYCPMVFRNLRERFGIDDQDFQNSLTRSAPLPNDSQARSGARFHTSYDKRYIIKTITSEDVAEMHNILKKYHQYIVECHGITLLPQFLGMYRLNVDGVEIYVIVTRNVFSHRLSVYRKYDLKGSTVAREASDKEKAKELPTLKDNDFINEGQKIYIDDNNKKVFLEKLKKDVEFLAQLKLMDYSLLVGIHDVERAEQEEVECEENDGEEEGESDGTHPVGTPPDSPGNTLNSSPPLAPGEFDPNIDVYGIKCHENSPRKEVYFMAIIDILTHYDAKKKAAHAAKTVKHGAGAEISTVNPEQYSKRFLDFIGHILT
Sequence of Receptor-type tyrosine-protein kinase FLT3 (Homo sapiens) (P36888 whole entry): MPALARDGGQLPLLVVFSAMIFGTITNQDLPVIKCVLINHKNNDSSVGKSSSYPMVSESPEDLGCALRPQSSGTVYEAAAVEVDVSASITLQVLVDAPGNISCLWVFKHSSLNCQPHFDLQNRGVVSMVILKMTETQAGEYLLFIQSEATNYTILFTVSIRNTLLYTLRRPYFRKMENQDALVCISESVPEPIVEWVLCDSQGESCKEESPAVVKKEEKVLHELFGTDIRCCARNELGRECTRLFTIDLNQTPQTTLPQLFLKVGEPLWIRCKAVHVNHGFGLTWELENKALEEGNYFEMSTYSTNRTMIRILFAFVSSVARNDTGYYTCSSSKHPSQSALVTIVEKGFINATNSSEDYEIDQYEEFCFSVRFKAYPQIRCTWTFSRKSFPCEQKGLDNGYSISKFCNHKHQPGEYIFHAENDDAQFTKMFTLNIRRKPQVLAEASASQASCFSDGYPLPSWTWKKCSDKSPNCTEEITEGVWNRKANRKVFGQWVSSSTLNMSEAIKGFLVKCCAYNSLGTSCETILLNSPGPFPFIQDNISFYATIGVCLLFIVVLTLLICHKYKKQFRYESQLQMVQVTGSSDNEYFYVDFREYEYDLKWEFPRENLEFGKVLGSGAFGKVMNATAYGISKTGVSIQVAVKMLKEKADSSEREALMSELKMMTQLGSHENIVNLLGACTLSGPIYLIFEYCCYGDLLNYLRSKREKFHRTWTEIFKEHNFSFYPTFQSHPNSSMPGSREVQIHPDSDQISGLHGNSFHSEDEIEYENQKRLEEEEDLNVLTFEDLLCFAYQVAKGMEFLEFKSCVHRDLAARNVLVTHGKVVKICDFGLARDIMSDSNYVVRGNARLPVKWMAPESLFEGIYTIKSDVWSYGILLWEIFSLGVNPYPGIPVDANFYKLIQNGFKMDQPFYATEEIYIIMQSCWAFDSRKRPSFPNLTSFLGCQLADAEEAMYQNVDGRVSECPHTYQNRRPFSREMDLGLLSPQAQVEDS

In the case of `CCc1ccccc1C(=O)Nc1n[nH]c2c(C)c(F)c(C3C(C#N)=C(C)N(C)C(C)=C3C#N)cc12` [BAY-3827], the % residual kinase activity is 7% in experiment [1]; 105% in experiment [2]; 98% in [3]; 68% in [4]; 93% in [5]; 90% in experiment [6]. Also, the % residual kinase activity was 112% in experiment [7] and 105% in experiment [8]. Further, the “Cell Proliferation IC50” value with MDA-MB-453 is 14.6 µM.
